Our source for the inhibition and IC50 values is patent publication US10940139B2, “Compounds that interact with the Ras superfamily for the treatment of cancers, inflammatory diseases, rasopathies, and fibrotic disease” (Shy Therapeutics LLC, priority 2017, dated 2021).

Like-named read-outs stand apart in the source and are kept apart here.

Common to all, as to test: Ras GTP binding domain inhibition assay (labeled GTP)
Experiment [1] deals with KRas G12D mutant protein (Homo sapiens (Human), UniProt P01116, G12D). The settings on record: 20 μM compound.
The target of experiment [2] is KRas G12C mutant (Homo sapiens (Human), UniProt P01116, G12C). The settings on record: 20 μM compound. The essentials: (§1)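 His-tagged KRas protein (3-10 μg/ml) was captured overnight at 4° C on nickel-coated wells in 50 mM Tris pH 7.5, 1 mM MgCl2, 1 mM DTT. Bound labeled GTP was read by fluorescence after washing.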
Experiment [3] deals with KRas G12D/Q61H double mutant (Homo sapiens (Human), UniProt P01116, G12D/Q61H). The conditions noted are these: for inhibition at 20 µM: 20 μM compound; for IC50: serial dilution, read-out: KRas G12D Q61H (classes E-H, IC50). The method, boiled down: as §1
Experiment [4] concerns the target KRas Q61H mutant (Homo sapiens (Human), UniProt P01116, Q61H). The conditions noted are these: 20 μM compound. The essentials: as §1
For experiment [5], the target named is KRas wild type (Homo sapiens (Human), UniProt P01116). The conditions noted are these: 20 μM compound. The essentials: as §1
The target of experiment [6] is KRas G12C/Q61H double mutant (Homo sapiens (Human), UniProt P01116, G12C/Q61H). The settings on record: 20 μM compound. The method, boiled down: as §1
Setting [7] is: KRas G12D, read-out: % Inhibition at 20 μM of K-Ras mutant and wild-type protein, KRas G12D.
Setting [8] is: KRas G12C, read-out: % Inhibition at 20 μM of K-Ras mutant and wild-type protein, KRas G12C.
The mark [9] stands for this setting: KRas G12D/Q61H double mutant, read-out: % Inhibition at 20 μM of K-Ras mutant and wild-type protein, KRas G12D Q61H.
The mark [10] stands for this setting: KRas Q61H, read-out: % Inhibition at 20 μM of K-Ras mutant and wild-type protein, KRas Q61H.
The mark [11] stands for this setting: KRas wild type, read-out: % Inhibition at 20 μM of K-Ras mutant and wild-type protein, KRas wild type.
[12] abbreviates: KRas G12C/Q61H double mutant, read-out: % Inhibition at 20 μM of K-Ras mutant and wild-type protein, KRas G12C Q61H.
Setting [13] is: read-out: % Inhibition at 20 μM KRas G12D.
The mark [14] stands for this setting: read-out: % Inhibition at 20 μM KRas G12C.
Where [15] appears, read: read-out: % Inhibition at 20 μM KRas G12D Q61H.
[16] abbreviates: read-out: % Inhibition at 20 μM KRas Q61H.
Setting [17] is: read-out: % Inhibition at 20 μM KRas wild type.
[18] abbreviates: read-out: % Inhibition at 20 μM KRas G12C Q61H.

Sequence of KRas G12D mutant protein (P01116-2 other isoform, or with tags, fused parts or gaps G12D): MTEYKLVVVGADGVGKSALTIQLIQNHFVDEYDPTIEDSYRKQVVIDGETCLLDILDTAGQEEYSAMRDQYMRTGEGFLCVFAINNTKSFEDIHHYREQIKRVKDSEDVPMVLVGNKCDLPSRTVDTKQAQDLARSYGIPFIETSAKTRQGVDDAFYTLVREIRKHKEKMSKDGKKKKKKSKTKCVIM
Sequence of KRas Q61H mutant (P01116-2 other isoform, or with tags, fused parts or gaps Q61H): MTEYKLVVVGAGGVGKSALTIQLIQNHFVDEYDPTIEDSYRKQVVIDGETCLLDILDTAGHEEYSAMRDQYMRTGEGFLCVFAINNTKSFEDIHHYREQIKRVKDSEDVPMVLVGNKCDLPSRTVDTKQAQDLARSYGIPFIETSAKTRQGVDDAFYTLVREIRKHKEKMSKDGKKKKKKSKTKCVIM
Sequence of KRas wild type (P01116-2 other isoform, or with tags, fused parts or gaps): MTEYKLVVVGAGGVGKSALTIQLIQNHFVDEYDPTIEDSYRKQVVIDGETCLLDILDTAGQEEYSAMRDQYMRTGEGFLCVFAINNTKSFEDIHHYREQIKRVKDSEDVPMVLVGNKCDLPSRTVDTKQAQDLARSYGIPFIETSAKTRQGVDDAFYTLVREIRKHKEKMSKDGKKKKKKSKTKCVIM
Sequence of KRas G12D/Q61H double mutant (P01116-2 other isoform, or with tags, fused parts or gaps G12D/Q61H): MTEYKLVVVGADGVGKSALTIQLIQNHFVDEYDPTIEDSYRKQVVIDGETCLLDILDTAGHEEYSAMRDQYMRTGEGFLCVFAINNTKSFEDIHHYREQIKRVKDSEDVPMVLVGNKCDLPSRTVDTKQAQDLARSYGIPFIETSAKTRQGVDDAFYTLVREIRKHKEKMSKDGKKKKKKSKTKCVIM
Sequence of KRas G12C/Q61H double mutant (P01116-2 other isoform, or with tags, fused parts or gaps G12C/Q61H): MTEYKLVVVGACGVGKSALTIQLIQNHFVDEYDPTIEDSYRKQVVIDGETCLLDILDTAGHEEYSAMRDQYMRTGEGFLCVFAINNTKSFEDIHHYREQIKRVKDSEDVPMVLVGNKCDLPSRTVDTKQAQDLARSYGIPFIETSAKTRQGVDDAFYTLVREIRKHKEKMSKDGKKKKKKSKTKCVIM
Sequence of KRas G12C mutant (P01116-2 other isoform, or with tags, fused parts or gaps G12C): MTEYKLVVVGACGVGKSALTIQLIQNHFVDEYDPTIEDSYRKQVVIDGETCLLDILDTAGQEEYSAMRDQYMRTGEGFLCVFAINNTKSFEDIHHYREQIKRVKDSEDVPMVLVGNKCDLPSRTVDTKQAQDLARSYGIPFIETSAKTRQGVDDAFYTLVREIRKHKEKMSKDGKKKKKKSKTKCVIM

In the case of `COc1cnc(-c2cnc[nH]2)nc1O` [drawing 3516], the inhibition at 20 µM in experiment [1] (setting [7]), in experiment [2] (setting [8]), in experiment [3] (setting [9]), in experiment [4] (setting [10]), in experiment [5] (setting [11]) and in experiment [6] (setting [12]) was 51 to 75% throughout.
In the case of `O=C(O)c1cc2nc(-c3ccccn3)nc(O)c2s1` [drawing 2850], the inhibition at 20 µM in experiment [1] (setting [13]), in experiment [2] (setting [14]), in experiment [3] (setting [15]), in experiment [4] (setting [16]), in experiment [5] (setting [17]) and in experiment [6] (setting [18]) was 51 to 75% in each case.
On to `COCC(C)Nc1nc(-c2ccccn2)nc2sc(-c3ccncc3)c(-c3ccccc3)c12` (stereo not drawn) [drawing 3541], for which the inhibition at 20 µM in experiment [1] (setting [7]) was 25 to 50%; in experiment [2] (setting [8]), 51 to 75%; in experiment [3] (setting [9]) it was 51 to 75%; in experiment [4] (setting [10]), 51 to 75%; in experiment [5] (setting [11]), 25 to 50%; in experiment [6] (setting [12]), 25 to 50%.
Consider `COc1cccc(C2CN(C(=O)c3csc4c(O)nc(-c5ccccn5)nc34)CCN2)c1` (stereo not drawn) [drawing 2773], for which the inhibition at 20 µM lay within 51 to 75% in experiment [1] (setting [13]); 25 to 50% in experiment [2] (setting [14]); 25 to 50% in experiment [3] (setting [15]); 76 to 100% in experiment [4] (setting [16]); 25 to 50% in experiment [5] (setting [17]); 51 to 75% in experiment [6] (setting [18]). The IC50 in experiment [3] is 11 to 30 µM.
For `O=C(CCc1nn[nH]n1)Nc1nc(-c2ccccn2)nc2sccc12` [drawing 2890], the inhibition at 20 µM in experiment [1] (setting [13]) fell in the range of 51 to 75%; in experiment [2] (setting [14]), 25 to 50%; in experiment [3] (setting [15]), 51 to 75%; in experiment [4] (setting [16]), 51 to 75%; in experiment [5] (setting [17]) it was 51 to 75%; in experiment [6] (setting [18]), 51 to 75%.
For `CC(C)COc1ccc(-c2csc3c(O)nc(-c4ccccn4)nc23)cn1` [drawing 2877], the inhibition at 20 µM in experiment [1] (setting [13]), in experiment [2] (setting [14]), in experiment [3] (setting [15]), in experiment [4] (setting [16]), in experiment [5] (setting [17]) and in experiment [6] (setting [18]) was 51 to 75% each time.
Consider `Oc1nc(-c2ccccn2)nc2sc3c(c12)CCCNC3` [drawing 2852], for which the inhibition at 20 µM in experiment [1] (setting [13]) was 51 to 75%; in experiment [2] (setting [14]), 51 to 75%; in experiment [3] (setting [15]), 25 to 50%; in experiment [4] (setting [16]), 25 to 50%; in experiment [5] (setting [17]), 25 to 50%; in experiment [6] (setting [18]), 25 to 50%.
Turning to `Oc1nc(-c2ccccn2)nc2c1c(-c1ccccc1)nn2-c1ccccn1` [drawing 3539], the inhibition at 20 µM lay within 51 to 75% in experiment [1] (setting [7]); 51 to 75% in experiment [2] (setting [8]); 51 to 75% in experiment [3] (setting [9]); 51 to 75% in experiment [4] (setting [10]); 25 to 50% in experiment [5] (setting [11]); 51 to 75% in experiment [6] (setting [12]).
Take `O=C(COCc1cccnc1)Nc1nc(-c2ccccn2)nc2sccc12` [drawing 2829]: the inhibition at 20 µM lay in the range of 51 to 75% in experiment [1] (setting [13]); 51 to 75% in experiment [2] (setting [14]); 51 to 75% in experiment [3] (setting [15]); 76 to 100% in experiment [4] (setting [16]); 51 to 75% in experiment [5] (setting [17]); 76 to 100% in experiment [6] (setting [18]).
Regarding `CN(C)Cc1ccc(-c2csc3c(O)nc(-c4ccccn4)nc23)cc1F` [drawing 2845], the inhibition at 20 µM in experiment [1] (setting [13]) lay in the range of 76 to 100%; in experiment [2] (setting [14]) it was 25 to 50%; in experiment [3] (setting [15]), 76 to 100%; in experiment [4] (setting [16]), 76 to 100%; in experiment [5] (setting [17]), 51 to 75%; in experiment [6] (setting [18]), 76 to 100%.
As for `O=C(COCc1ccncc1)Nc1nc(-c2ccccn2)nc2sccc12` [drawing 2828], the inhibition at 20 µM was 51 to 75% in experiment [1] (setting [13]); 51 to 75% in experiment [2] (setting [14]); 51 to 75% in experiment [3] (setting [15]); 51 to 75% in experiment [4] (setting [16]); 25 to 50% in experiment [5] (setting [17]); 51 to 75% in experiment [6] (setting [18]).
On to `Cc1sc2c(O)nc(-c3ccccn3)nc2c1-c1ccncc1` [drawing 3497], for which the inhibition at 20 µM in experiment [1] (setting [7]) lay within 51 to 75%; in experiment [2] (setting [8]), 25 to 50%; in experiment [3] (setting [9]) it was 51 to 75%; in experiment [4] (setting [10]) it was 51 to 75%; in experiment [5] (setting [11]), 1 to 25%; in experiment [6] (setting [12]), 25 to 50%.
As to `Nc1nc(-c2ccccn2)nc2ccsc12` [drawing 2834], the inhibition at 20 µM in experiment [1] (setting [13]) lay in the range of 1 to 25%; in experiment [2] (setting [14]), 25 to 50%; in experiment [3] (setting [15]), 25 to 50%; in experiment [4] (setting [16]) it was 51 to 75%; in experiment [5] (setting [17]), 1 to 25%; in experiment [6] (setting [18]) it was 25 to 50%.
As to `COc1nc(-c2ccccn2)nc2c(C3CCCC3)csc12` [drawing 3470], the inhibition at 20 µM was in the range of 25 to 50% in experiment [1] (setting [7]); 25 to 50% in experiment [2] (setting [8]); 51 to 75% in experiment [3] (setting [9]); 76 to 100% in experiment [4] (setting [10]); 25 to 50% in experiment [5] (setting [11]); 51 to 75% in experiment [6] (setting [12]).
For the molecule `COCCNc1nc(-c2cn(C)cn2)nc2sc(-c3ccncc3)c(-c3ccccc3)c12` [drawing 3530], the inhibition at 20 µM in experiment [1] (setting [7]) fell in the range of 51 to 75%; in experiment [2] (setting [8]) it was 51 to 75%; in experiment [3] (setting [9]), 76 to 100%; in experiment [4] (setting [10]) it was 76 to 100%; in experiment [5] (setting [11]), 51 to 75%; in experiment [6] (setting [12]), 51 to 75%.
Consider `CN1CCN(c2nc(-c3ccccn3)nc3scc(C(=O)NCCc4cnc(O)nc4)c23)CC1` [drawing 2899], for which the inhibition at 20 µM lay within 51 to 75% in experiment [1] (setting [13]); 1 to 25% in experiment [2] (setting [14]); 25 to 50% in experiment [3] (setting [15]); 51 to 75% in experiment [4] (setting [16]); 1 to 25% in experiment [5] (setting [17]); 51 to 75% in experiment [6] (setting [18]). Further, the IC50 in experiment [3] is > 30 µM.
Regarding `COCCNc1nc(-c2ccccn2)nc2c1c(-c1ccccc1)nn2-c1ccccn1` [drawing 3538], the inhibition at 20 µM in experiment [1] (setting [7]) lay within 51 to 75%; in experiment [2] (setting [8]) it was 51 to 75%; in experiment [3] (setting [9]), 51 to 75%; in experiment [4] (setting [10]) it was 51 to 75%; in experiment [5] (setting [11]), 51 to 75%; in experiment [6] (setting [12]) it was 76 to 100%.
Consider `Cc1sc2c(O)nc(-c3ccccn3)nc2c1C(=O)N1CCN(c2ccccc2)CC1C` (stereo not drawn) [drawing 3509], for which the inhibition at 20 µM is 51 to 75% in experiment [1] (setting [7]); 51 to 75% in experiment [2] (setting [8]); 51 to 75% in experiment [3] (setting [9]); 51 to 75% in experiment [4] (setting [10]); 25 to 50% in experiment [5] (setting [11]); 51 to 75% in experiment [6] (setting [12]).
Consider `CN(C)Cc1ccc(F)c(-c2csc3c(O)nc(-c4ccccn4)nc23)c1` [drawing 2901], for which the inhibition at 20 µM in experiment [1] (setting [13]) is 51 to 75%; in experiment [2] (setting [14]) it was 25 to 50%; in experiment [3] (setting [15]) it was 25 to 50%; in experiment [4] (setting [16]), 51 to 75%; in experiment [5] (setting [17]), 51 to 75%; in experiment [6] (setting [18]), 51 to 75%. Besides, the IC50 in experiment [3] lay in the range of 11 to 30 µM.
For `CC(C)(O)c1ccc(-c2csc3c(O)nc(-c4ccccn4)nc23)c(F)c1` [drawing 2880], the inhibition at 20 µM in experiment [1] (setting [13]), in experiment [2] (setting [14]), in experiment [3] (setting [15]), in experiment [4] (setting [16]), in experiment [5] (setting [17]) and in experiment [6] (setting [18]) was 51 to 75% each time.
As to `COc1ccc(F)cc1-c1csc2c(O)nc(-c3ccccn3)nc12` [drawing 2874], the inhibition at 20 µM in experiment [1] (setting [13]) was in the range of 51 to 75%; in experiment [2] (setting [14]) it was 25 to 50%; in experiment [3] (setting [15]), 51 to 75%; in experiment [4] (setting [16]), 25 to 50%; in experiment [5] (setting [17]), 25 to 50%; in experiment [6] (setting [18]), 25 to 50%.
On to `Oc1nc(-c2ccccn2)nc2c(-c3ccccc3C(F)F)csc12` [drawing 2883], for which the inhibition at 20 µM in experiment [1] (setting [13]) fell in the range of 51 to 75%; in experiment [2] (setting [14]) it was 25 to 50%; in experiment [3] (setting [15]), 51 to 75%; in experiment [4] (setting [16]), 51 to 75%; in experiment [5] (setting [17]), 25 to 50%; in experiment [6] (setting [18]), 51 to 75%.
Take `O=C(c1cc2nc(-c3ccccn3)nc(O)c2s1)N1CCN(c2ccccc2)CC1` [drawing 2841]: the inhibition at 20 µM in experiment [1] (setting [13]), in experiment [2] (setting [14]), in experiment [3] (setting [15]), in experiment [4] (setting [16]), in experiment [5] (setting [17]) and in experiment [6] (setting [18]) was 51 to 75% throughout.
